Patent US12491176B2, “Methods, compositions, kits and uses thereof targeting and/or treating VRK2 to enhance effectiveness of immune checkpoint inhibitor(s)” (THE TRUSTEES OF COLUMBIA UNIVERSITY IN THE CITY OF NEW YORK, priority 2021, dated 2025)
“Also recorded” adds a separate entry of the source.

What was measured:
[1] = system: PAK2 S197 phosphorylation; assay: Western blot of PAK2 S197 phosphorylation in Jurkat T cells following PD-1 ligation; assay type: cell-based, human
Method: To determine PAK phosphorylation, 5×10^6 Jurkat T cells were washed with cold PBS and resuspended in complete RPMI. The cells were stimulated for 5 minutes with Dynabeads at 37° C. as indicated above (beads/cells ratio of 3:1). The samples were treated with Calyculin A (CST 99025) at 100 nM for 25 minutes at 37° C., washed once with cold PBS and centrifugation at 500×g and lysed with RIPA buffer supplemented with PhosStop (Roche) for 1 hr at 4° C. Following 10 second sonication and centrifugation at 12,000×g for 10 minutes at 4° C., the samples were blotted using Phospho-PAK1 (Ser199/204)/PAK2 (Ser192/197) antibody (Cell Signaling). Blots were imaged and analyzed using Licor Odyssey.
Therefore, it was sought to validate the in silico predictions in Jurkat T cells with and without pharmacological VRK2 inhibition as well as in shRNA VRK2 knockdown Jurkat T cell line.

MC38 tumor = assay: MC38 syngeneic mouse tumor model, tumor growth; assay type: in vivo
Text: (§1) One million MC38 or 4T1 cells were used for inoculation, implanted subcutaneously in the right hind flank of mice. Tumor growth was monitored using electronic calipers and calculated according to the formula: V=length×width^2×0.52. For T cell phenotypic analysis by flow cytometry, spleens and inguinal lymph nodes were harvested 17 days post-treatment initiation. Splenic and tdLN cells were stained with anti-mouse antibodies for flow cytometry analysis. To deplete T cells, mice received intraperitoneal injection of 200 μg anti-CD4 (BioXcell BE0003) and 200 μg anti-CD8 (BioXcell BE0061) antibodies in PBS, a second dose of the antibodies was administered two days later. […] Cell viability was measured with PrestoBlue (Invitrogen). […] Prexasertib was given S.C. at 10 mg/kg. All drugs were given for 12 days.
(§2) The MC38 syngeneic mouse tumor model was used to determine whether VRK2 inhibition alone or in combination with PD-1 blockade would improve anti-tumor immune response (see, e.g., FIG. 3A).
Utilizing an immunocompetent syngeneic model, C57BL/6 mice were injected with colon adenocarcinoma cell line MC38 and treated with kinase inhibitors as monotherapy or in combination with a mouse immune checkpoint blocking antibody (clone RMP1.14) for PD-1.

4T1 tumor = assay: 4T1 mouse breast cancer tumor model in BALB/c mice, tumor growth; assay type: in vivo
Text: as §1

mouse splenocytes = settings: overnight treatment
[2] = system: T cells in tdLN and spleen; assay: T cell phenotypic analysis by flow cytometry in tdLN and spleen of MC38 tumor mice; assay type: in vivo, mouse
Text: as §1, §2

PD-1 signaling = assay: In vitro ability of PD-1 to inhibit cytokine secretion with IC-261; assay type: cell-based
Method: IL-2, IL-8, and IFN-γ concentrations in the supernatant were measured by enzyme linked immunosorbent assay (ELISA) from BioLegend.
IC-261 (AdooQ®: A15764), a small molecule specific inhibitor of VRK2 was used to evaluate the effect of VRK2 inhibition in tumor growth using mice MC38 syngenetic tumor model. This drug was also used in in vitro experiments where the ability of PD-1 to inhibit cytokine secretion was evaluated.

T cells = assay: Toxicity to T cells; assay type: cell-based

SMILES | PAK2 S197 phosphorylation following PD-1 ligation [1] | MC38 tumor volume compared to Prexasertib (LY2606368) and PF-477,736 (MC38 tumor; AZD-7762 25 mg/kg, PF 10 mg/kg, Prexasertib 10 mg/kg, 12 days) | tumor inhibition (MC38 tumor; AZD-7762 in combination treatment with anti-PD-1, MC38 in C57BL/6 mice) | tumor volume compared to vehicle or anti-PD-1 antibody treatment (MC38 tumor; AZD-7762 treatment alone, MC38) | anti-tumor activity after CD4+ and CD8+ T cell depletion (MC38 tumor; MC38 model, T cells depleted with anti-CD4 and anti-CD8 antibodies) | anti-tumor responses compared to PD-1 blockade alone or AZD-7762 treatment alone (MC38 tumor; combination of AZD-7762 with PD-1 blockade, MC38) | inhibited tumor growth (MC38 tumor; monotherapy, 25 mg/kg intraperitoneal (I.P.), MC38 in C57BL/6 mice) [%] | reduction in tumor growth (4T1 tumor; AZD-7762 alone, 4T1 in BALB/c mice (resistant to PD-1 monotherapy)) [%] | reduction in tumor growth, combination versus AZD-7762 alone (4T1 tumor; combination of AZD-7762 and anti-PD-1, 4T1 in BALB/c mice) | cytotoxicity compared to two other CHK specific inhibitors (mouse splenocytes) | proportion of CD8 T cells in tumor draining lymph nodes (tdLN) ([2]; combination of AZD-7762 with PD-1 blockade) | proportion of CD44+PD-1+ T cells in spleen and tdLN ([2]; combination therapy) | proportion of activated CD44+CD69+ CD4+ and CD8+ T cells in the tdLN ([2]; combination therapy) | LAG-3+ CD8+ T cells ([2]; combination therapy, tdLN) | effect on PD-1 signaling and function (ability of PD-1 to inhibit cytokine secretion) (PD-1 signaling) | toxicity to T cells (T cells) | inhibition of tumor growth (MC38 tumor; monotherapy, 5 mg/kg, MC38 in C57BL/6 mice)
NC(=O)Nc1cc(-c2cccc(F)c2)sc1C(=O)N[C@H]1CCCNC1 [AZD-7762] | fully inhibited | marked decrease in MC38 tumor volume | around 90% | significantly decreased tumor volume | fully reversed the anti-tumor activity; also recorded: impaired the efficacy | augmented anti-tumor responses | ~80 | ~30 | similar | less cytotoxicity | increased proportion of CD8 T cells | elevated proportion | significantly increased proportion | significantly increased | – | – | –
COc1cc(OC)c(C=C2C(O)=Nc3ccccc32)c(OC)c1 [IC-261] | – | – | – | – | – | – | – | – | – | – | – | – | – | – | interfere with PD-1 signaling and function | not toxic to T cells | inhibition of tumor growth, like anti-PD-1 dosed as monotherapy
